In ChEMBL document CHEMBL3832025, “DailyMed|setid=d3417226-1f42-40cd-82ac-bc31ddf79b97 | OFLOXACIN - ofloxacin tablet, film coated|PD-Rx Pharmaceuticals, Inc”:
Where “and” joins values, the source holds several entries; their conditions need not be identical. Equal values may be shown once.

Legend:
Type in all cases: ADME, organism-based
[1] = (§1) Pharmcokinetic parameters for Ofloxacin following single oral dose administration of Ofloxacin to healthy male volunteers, body mass 70 to 80 kg.; design: dose 300 mg, dose 200 mg, dose 400 mg, route oral; settings: human, in vivo, dosed compound id 33, dosed compound name OFLOXACIN, regimen Single dose
Homo sapiens [2] = assay: as §1; design: dose 300 mg, dose 200 mg, dose 400 mg, route oral; settings: in vivo, po, dosed compound id 33, dosed compound name OFLOXACIN, gender male, regimen Single dose, tissue Serum
[3] = (§2) Steady-state pharmacokinetic parameters for Ofloxacin following multiple oral and intravenous (IV) doses of Ofloxacin to healthy 70 to 80 kg male volunteers.; design: dose 200 mg, dose 400 mg, dose 300 mg, route oral, route iv; settings: human, in vivo, dosed compound id 33, dosed compound name OFLOXACIN, regimen Multiple dose; for AUC: gender male, tissue Serum
Homo sapiens [4] = assay: as §2; design: dose 200 mg, dose 400 mg, dose 300 mg, route oral, route iv; settings: in vivo, dosed compound id 33, dosed compound name OFLOXACIN, gender male, regimen Multiple dose, tissue Serum
[5] = male, route oral, tissue Plasma

Cmax ([1]; po, gender male, tissue Serum): 1500 ng/mL
Tmax [1, 5]: 1 to 2 h
bioavailability [1, 5]: 98%
Cmax (Homo sapiens [2]): 2400 ng/mL and 2900 ng/mL
AUC ([3]; read-out: AUC(0 to 12) ss): 41200 ng·h/mL
AUC ([3]; read-out: AUC(0 to inf) ss): 61000 ng·h/mL
half-life ([3]; male, route oral, tissue Plasma, read-out: t1/2 ss): 4 to 5 h
AUC(0 to 12) ss (Homo sapiens [4]; study dosing duration 60 minutes): 43500 ng·h/mL
Cmax ss (Homo sapiens [4]; po): 2200 ng/mL and 3600 ng/mL and 4600 ng/mL
Compound: CC1COc2c(N3CCN(C)CC3)c(F)cc3c(=O)c(C(=O)O)cn1c23 (stereo not given) [OFLOXACIN]
AUC(0 to inf) (Homo sapiens [2]): 14100 ng·h/mL and 21200 ng·h/mL and 31400 ng·h/mL
